Test results from ChEMBL document CHEMBL2380246, “Structure-activity relationships of hybrid annonaceous acetogenins: powerful growth inhibitory effects of their connecting groups between heterocycle and hydrophobic carbon chain bearing THF ring on human cancer cell lines” (2013).

What was measured:
Assay type in all cases: functional
[1] = test system: OVCAR-4; test: Growth inhibition of human OVCAR4 cells after 48 hrs by sulforhodamine B assay; conditions: OVCAR-4, 48 h
[2] = test system: SF-539; test: Growth inhibition of human SF539 cells after 48 hrs by sulforhodamine B assay; conditions: SF-539, 48 h
[3] = test system: DMS-273; test: Growth inhibition of human DMS273 cells after 48 hrs by sulforhodamine B assay; conditions: DMS-273, 48 h
[4] = Growth inhibition of human HBC4 cells after 48 hrs by sulforhodamine B assay; conditions: HBC4, 48 h
[5] = test system: NCI-H226; test: Growth inhibition of human NCI-H226 cells after 48 hrs by sulforhodamine B assay; conditions: NCI-H226, 48 h
[6] = test system: St-4; test: Growth inhibition of human St-4 cells after 48 hrs by sulforhodamine B assay; conditions: St-4, 48 h
[7] = Growth inhibition of human MKN1 cells after 48 hrs by sulforhodamine B assay; conditions: MKN-1, 48 h
[8] = test system: DU-145; test: Growth inhibition of human DU145 cells after 48 hrs by sulforhodamine B assay; conditions: DU-145, 48 h
[9] = test system: KM12; test: Growth inhibition of human KM12 cells after 48 hrs by sulforhodamine B assay; conditions: KM12, 48 h
[10] = Growth inhibition of human RXF631L cells after 48 hrs by sulforhodamine B assay; conditions: RXF 631, 48 h
[11] = test system: ACHN; test: Growth inhibition of human ACHN cells after 48 hrs by sulforhodamine B assay
[12] = test system: SNB-75; test: Growth inhibition of human SNB75 cells after 48 hrs by sulforhodamine B assay; conditions: SNB-75, 48 h
[13] = test system: NCI-H522; test: Growth inhibition of human NCI-H522 cells after 48 hrs by sulforhodamine B assay; conditions: NCI-H522, 48 h
[14] = test system: HT-29; test: Growth inhibition of human HT-29 cells after 48 hrs by sulforhodamine B assay; conditions: HT-29, 48 h
[15] = test system: SF-268; test: Growth inhibition of human SF268 cells after 48 hrs by sulforhodamine B assay; conditions: SF-268, 48 h
[16] = test system: NCI-H23; test: Growth inhibition of human NCI-H23 cells after 48 hrs by sulforhodamine B assay; conditions: NCI-H23, 48 h
[17] = test system: SNB-78; test: Growth inhibition of human SNB78 cells after 48 hrs by sulforhodamine B assay; conditions: SNB-78, 48 h
[18] = Growth inhibition of human HCC2998 cells after 48 hrs by sulforhodamine B assay; conditions: HCC 2998, 48 h
[19] = test system: OVCAR-3; test: Growth inhibition of human OVCAR3 cells after 48 hrs by sulforhodamine B assay; conditions: OVCAR-3, 48 h
[20] = test system: NCI-H460; test: Growth inhibition of human NCI-H460 cells after 48 hrs by sulforhodamine B assay; conditions: NCI-H460, 48 h
[21] = test system: OVCAR-8; test: Growth inhibition of human OVCAR8 cells after 48 hrs by sulforhodamine B assay; conditions: OVCAR-8, 48 h
[22] = test system: SK-OV-3; test: Growth inhibition of human SKOV3 cells after 48 hrs by sulforhodamine B assay; conditions: SK-OV-3, 48 h
[23] = test system: MCF7; test: Growth inhibition of human MCF7 cells after 48 hrs by sulforhodamine B assay; conditions: MCF7, 48 h
[24] = test system: A549; test: Growth inhibition of human A549 cells after 48 hrs by sulforhodamine B assay; conditions: A549, 48 h
[25] = Growth inhibition of human HBC5 cells after 48 hrs by sulforhodamine B assay; conditions: HBC5, 48 h
[26] = test system: HCT-15; test: Growth inhibition of human HCT15 cells after 48 hrs by sulforhodamine B assay; conditions: HCT-15, 48 h
[27] = test system: SF-295; test: Growth inhibition of human SF295 cells after 48 hrs by sulforhodamine B assay; conditions: SF-295, 48 h
[28] = test system: MDA-MB-231; test: Growth inhibition of human MDA-MB-231 cells after 48 hrs by sulforhodamine B assay; conditions: MDA-MB-231, 48 h
[29] = test system: MKN-45; test: Growth inhibition of human MKN45 cells after 48 hrs by sulforhodamine B assay; conditions: MKN-45, 48 h
[30] = test system: U-251; test: Growth inhibition of human U251 cells after 48 hrs by sulforhodamine B assay; conditions: U-251, 48 h
[31] = test system: OVCAR-5; test: Growth inhibition of human OVCAR5 cells after 48 hrs by sulforhodamine B assay; conditions: OVCAR-5, 48 h
[32] = test system: PC-3; test: Growth inhibition of human PC3 cells after 48 hrs by sulforhodamine B assay; conditions: PC-3, 48 h
[33] = test system: MKN-74; test: Growth inhibition of human MKN74 cells after 48 hrs by sulforhodamine B assay; conditions: MKN-74, 48 h
[34] = test system: MKN-28; test: Growth inhibition of human MKN28 cells after 48 hrs by sulforhodamine B assay; conditions: MKN-28, 48 h
[35] = test system: HCT-116; test: Growth inhibition of human HCT116 cells after 48 hrs by sulforhodamine B assay; conditions: HCT-116, 48 h
[36] = Growth inhibition of human BSY1 cells after 48 hrs by sulforhodamine B assay; conditions: BSY-1, 48 h
[37] = test system: MKN-7; test: Growth inhibition of human MKN7 cells after 48 hrs by sulforhodamine B assay; conditions: MKN-7, 48 h
[38] = test system: DMS-114; test: Growth inhibition of human DMS114 cells after 48 hrs by sulforhodamine B assay; conditions: DMS-114, 48 h
[39] = test system: LOX IMVI; test: Growth inhibition of human LOXIMVI cells after 48 hrs by sulforhodamine B assay

CCCCCCCCCCCC[C@@H](O)[C@H]1CC[C@H]([C@H](O)CCCCCCCCCCNC(=O)c2ccnn2C)O1
GI50 [1]: 22.9 µM | GI50 [2]: 3.72 µM | GI50 [3]: 5.75 µM | GI50 [4]: > 100 µM | GI50 [5]: 40.7 µM | GI50 [6]: 18.2 µM | GI50 [7]: 43.7 µM | GI50 [8]: > 100 µM | GI50 [9]: > 100 µM | GI50 [10]: > 100 µM | GI50 [11]: 24 µM | GI50 [12]: 50.1 µM | GI50 [13]: 1.41 µM | GI50 [14]: > 100 µM | GI50 [15]: > 100 µM | GI50 [16]: 0.0525 µM | GI50 [17]: > 100 µM | GI50 [18]: > 100 µM | GI50 [19]: 77.6 µM | GI50 [20]: 8.13 µM | GI50 [21]: 30.9 µM | GI50 [22]: > 100 µM | GI50 [23]: 3.24 µM | GI50 [24]: 12.9 µM | GI50 [25]: 17 µM | GI50 [26]: > 100 µM | GI50 [27]: 10 µM | GI50 [28]: 8.51 µM | GI50 [29]: 7.41 µM | GI50 [30]: > 100 µM | GI50 [31]: > 100 µM | GI50 [32]: 18.2 µM | GI50 [33]: 3.89 µM

CCCCCCCCCCCC[C@@H](O)[C@H]1CC[C@H]([C@H](O)CCCCCCCCCCC(=O)Nc2ccnn2C)O1
GI50 [1]: > 100 µM | GI50 [2]: > 100 µM | GI50 [3]: > 100 µM | GI50 [4]: > 100 µM | GI50 [5]: 75.9 µM | GI50 [6]: > 100 µM | GI50 [7]: > 100 µM | GI50 [8]: > 100 µM | GI50 [34]: 18.2 µM | GI50 [35]: 64.6 µM | GI50 [9]: > 100 µM | GI50 [36]: 95.5 µM | GI50 [10]: > 100 µM | GI50 [11]: > 100 µM | GI50 [12]: > 100 µM | GI50 [37]: 20.9 µM | GI50 [13]: 28.8 µM | GI50 [14]: > 100 µM | GI50 [15]: > 100 µM | GI50 [16]: 26.9 µM | GI50 [17]: > 100 µM | GI50 [18]: > 100 µM | GI50 [19]: > 100 µM | GI50 [38]: 3.31 µM | GI50 [20]: > 100 µM | GI50 [21]: > 100 µM | GI50 [22]: > 100 µM | GI50 [23]: > 100 µM | GI50 [24]: > 100 µM | GI50 [39]: > 100 µM | GI50 [25]: > 100 µM | GI50 [26]: > 100 µM | GI50 [27]: 57.5 µM | GI50 [28]: > 100 µM | GI50 [29]: > 100 µM | GI50 [30]: > 100 µM | GI50 [31]: > 100 µM | GI50 [32]: > 100 µM | GI50 [33]: > 100 µM

CCCCCCCCCCCC[C@@H](O)[C@H]1CC[C@H]([C@H](O)CCCCCCCCCCOC(=O)c2ccnn2C)O1
GI50 [1]: > 100 µM | GI50 [2]: > 100 µM | GI50 [3]: 38 µM | GI50 [4]: 51.3 µM | GI50 [5]: 28.2 µM | GI50 [6]: 30.2 µM | GI50 [7]: 43.7 µM | GI50 [8]: > 100 µM | GI50 [34]: 2.51 µM | GI50 [35]: 3.98 µM | GI50 [9]: 20 µM | GI50 [36]: 0.813 µM | GI50 [10]: > 100 µM | GI50 [11]: 57.5 µM | GI50 [12]: > 100 µM | GI50 [37]: 0.617 µM | GI50 [13]: 6.31 µM | GI50 [14]: 32.4 µM | GI50 [15]: > 100 µM | GI50 [16]: 11 µM | GI50 [17]: 44.7 µM | GI50 [18]: 46.8 µM | GI50 [19]: > 100 µM | GI50 [38]: 0.407 µM | GI50 [20]: 34.7 µM | GI50 [21]: > 100 µM | GI50 [22]: > 100 µM | GI50 [23]: 22.9 µM | GI50 [24]: 56.2 µM | GI50 [39]: 12.9 µM | GI50 [25]: 25.7 µM | GI50 [26]: 47.9 µM | GI50 [27]: 30.9 µM | GI50 [28]: > 100 µM | GI50 [29]: > 100 µM | GI50 [30]: 69.2 µM | GI50 [31]: > 100 µM | GI50 [32]: 28.2 µM | GI50 [33]: 30.9 µM

CCCCCCCCCCCC[C@@H](O)[C@H]1CC[C@H]([C@H](O)CCCCCCCCCCCCC2=C[C@H](C)OC2=O)O1 [REL-SOLAMIN]
GI50 [1]: > 100 µM | GI50 [2]: > 100 µM | GI50 [3]: > 100 µM | GI50 [4]: > 100 µM | GI50 [5]: > 100 µM | GI50 [6]: > 100 µM | GI50 [7]: > 100 µM | GI50 [8]: > 100 µM | GI50 [35]: > 100 µM | GI50 [9]: > 100 µM | GI50 [36]: > 100 µM | GI50 [10]: > 100 µM | GI50 [11]: > 100 µM | GI50 [12]: > 100 µM | GI50 [14]: > 100 µM | GI50 [15]: > 100 µM | GI50 [17]: > 100 µM | GI50 [18]: > 100 µM | GI50 [19]: > 100 µM | GI50 [38]: 4.27 µM | GI50 [20]: > 100 µM | GI50 [21]: > 100 µM | GI50 [22]: > 100 µM | GI50 [24]: > 100 µM | GI50 [39]: 28.8 µM | GI50 [25]: > 100 µM | GI50 [26]: > 100 µM | GI50 [27]: 39.8 µM | GI50 [28]: > 100 µM | GI50 [29]: > 100 µM | GI50 [30]: > 100 µM | GI50 [31]: > 100 µM | GI50 [32]: > 100 µM | GI50 [33]: > 100 µM
